Reference: US7384927B2, “Alkylated porphyrins as pesticides acting both in the presence and absence of light” (priority 2003, dated 2008)

Key:
Type in all cases: in vivo
Bactrocera oleae flies = assay: Insecticidal action in the dark: fly survival after porphyrin bait; conditions: fed 24 h, survival 12 h after change to porphyrin-free bait
Protocol: (§1) These flies were then used in the various experimental sessions. […] The number of survivors was evaluated 12 h after switching from administration of a porphyrin-containing bait to a porphyrin-free bait. In none of the experiments was mortality or any apparent toxic effect observed in control flies (flies not fed with porphyrin, see survival at 0 μM porphyrin concentration).

[1] = test system: Stomoxis calcitrans flies; assay: as above; conditions: fed 24 h, survival 12 h after change to porphyrin-free bait
Protocol: as §1

Ceratitis capitata flies [2] = assay: Photoinsecticidal action: fly survival after bait and visible light irradiation (artificial lamp); conditions: for Survival (% of control untreated flies): survival 10 h after irradiation
Protocol: (§2) Porphyrins: • a) meso[tri(N-methyl-pyridyl), mono(N-dodecyl-pyridyl)]porphine (abbr.: C12) • b) meso[tri(N-methyl-pyridyl), mono(N-tetradecyl-pyridyl)]porphine (abbr.: C14) • c) meso[tri(N-methyl-pyridyl), mono(N-octadecyl-pyridyl)]porphine (abbr.: C18) Bait: Aqueous solution containing 10% sucrose and 1% autolysed yeast Flies: • a) Ceratitis capitata (fruit fly) age: 1 week; weight: 5-6 mg • b) Bactrocera oleae (olive fly) age: 10 days; weight: 4-4.5 mg • c) Stomoxis calcitrans (stable fly) age: 10 days; weight: 12 mg Irradiation: • a) High pressure halogen lamp, equipped with infrared and UV filters, emission 360-850 nm, operated at intensities in the 760-2,000 μE s^−1m^−2 range • b) Sunlight, mid June at Padua latitude, average intensity of […] μE s^−1m^−2 with minimum and maximum values of 950 and, respectively, 1,380 μE s^−1m^−2
The irradiations were performed for 1 h, then the flies were kept in dim light for monitoring the survival. Control flies were irradiated under identical conditions after feeding with a porphyrin-free bait.
The irradiations were performed for 1 h at a fluence-rate of 1220 μE s^−1m^−2. The survival was evaluated 10 h after the end of irradiation. […] The porphyrins are abbreviated as following: HP: haematoporphyrin; C1: meso-tetra(N-methyl-pyridyl)porphine.
The survival was evaluated 10 h after the end of irradiation.
An appropriate number of flies (50 flies per each experiment) was caged in 115×55×70 mm Plexiglas cages with several holes (ø=0.5 mm) and starved for 36 h. Then, depending on the protocol to be adopted for each specific experiment, the flies were fed with the bait (10% sucrose and 1% autolysed yeast in neutral aqueous solution), which was either porphyrin-free or added with a predetermined concentration of the porphyrin. These flies were then used in the various experimental sessions. […]

Ceratitis capitata flies [3] = assay: Photoinsecticidal action: fly survival after bait and sunlight irradiation; conditions: 3 μM in bait, 12 h after feeding, survival 1 h after irradiation
Protocol: as §2
The survival was evaluated 1 h after the end of irradiation.
(§3) An appropriate number of flies (50 flies per each experiment) was caged in 115×55×70 mm Plexiglas cages with several holes (ø=0.5 mm) and starved for 36 h. Then, depending on the protocol to be adopted for each specific experiment, the flies were fed with the bait (10% sucrose and 1% autolysed yeast in neutral aqueous solution), which was either porphyrin-free or added with a predetermined concentration of the porphyrin. These flies were then used in the various experimental sessions.

Ceratitis capitata flies [4] = assay: Insecticidal action in the dark: fly survival after porphyrin bait; conditions: dark, fed 24 h, survival 12 h after change to porphyrin-free bait
Protocol: as §1, with “For comparison, data obtained with two conventional porphyrins (as those described in WO 97/29637) offered to the insects for 24 h at a 3.0 and 8.1 μmolar concentration in the same bait are also shown. In all cases, the survival was determined 12 hours after changing food supply from a porphyrin-containing to a porphyrin-free bait. […] These” for “These”

[5] = test system: Ceratitis capitata (fruit fly); assay: Uptake of alkylated porphyrins by flies fed porphyrin-containing bait; conditions: C. capitata
Protocol: as §2, §3
(§4) At predetermined times, the flies were sacrificed by freezing; the dead flies were then homogenized with a Polytron in 10 ml of a 2% aqueous solution of sodium dodecylsulphate (SDS). The suspension was centrifuged for 10 min at 2,000 rpm, the pellet was discarded and known aliquots of the supernatant were diluted by means of a chloroform/methanol binary mixture (1/2, v/v). The porphyrin concentration was measured by reading the fluorescence emitted at wavelengths above 630 nm and interpolating the emission intensity with a calibration plot obtained with known amounts of the porphyrin. The results were expressed as nanomoles of porphyrin recovered per fly.

[6] = test system: Ceratitis capitata (fruit fly); assay: Release of alkylated porphyrin from flies after feeding with bait interrupted; conditions: C. capitata, 1.25 μM porphyrin in the bait
Protocol: as §3, §4

[7] = test system: Stomoxis calcitrans (stable fly); assay: as above; conditions: S. calcitrans, 1.25 μM porphyrin in the bait
Protocol: as §3, §4

[8] = test system: Bactrocera oleae (olive fly); assay: as above; conditions: B. oleae, 1.25 μM porphyrin in the bait
Protocol: as §3, §4

**Q.** How did the “Survival (% of control untreated flies)” value (Bactrocera oleae flies; 0.75 μM in bait) turn out when `CCCCCCCCCCCCCCCCCC[n+]1ccc(-c2c3nc(c(-c4cc[n+](C)cc4)c4ccc([nH]4)c(-c4cc[n+](C)cc4)c4nc(c(-c5cc[n+](C)cc5)c5ccc2[nH]5)C=C4)C=C3)cc1` [C18, meso[tri(N-methyl-pyridyl), mono(N-octadecyl-pyridyl)]porphine] was run?
**A.** 100 % of control untreated flies

**Q.** And the “Survival (% of control untreated flies)” value (Bactrocera oleae flies; 1.25 μM in bait)?
**A.** 100 % of control untreated flies

**Q.** And the “Survival (% of control untreated flies)” value (Bactrocera oleae flies; 2.10 μM in bait)?
**A.** 53 % of control untreated flies

**Q.** What about the “Survival (% of control untreated flies)” value (Bactrocera oleae flies; 3.00 μM in bait) of the same molecule?
**A.** 39 % of control untreated flies

**Q.** What about the “Survival (% of control untreated flies)” value (Bactrocera oleae flies; 5.00 μM in bait) of the same molecule?
**A.** 16 % of control untreated flies

**Q.** And the “Survival (% of control untreated flies)” value (Bactrocera oleae flies; 8.10 μM in bait)?
**A.** 3 % of control untreated flies

**Q.** What about the “Survival (% of control untreated flies)” value ([1]; 0.75 μM in bait) of the same molecule?
**A.** 100 % of control untreated flies

**Q.** And the “Survival (% of control untreated flies)” value ([1]; 1.25 μM in bait)?
**A.** 79 % of control untreated flies

**Q.** What about the “Survival (% of control untreated flies)” value ([1]; 2.10 μM in bait) of the same molecule?
**A.** 45 % of control untreated flies

**Q.** What about the “Survival (% of control untreated flies)” value ([1]; 3.00 μM in bait) of the same molecule?
**A.** 24 % of control untreated flies

**Q.** And the “Survival (% of control untreated flies)” value ([1]; 5.00 μM in bait)?
**A.** 10 % of control untreated flies

**Q.** And the “Survival (% of control untreated flies)” value ([1]; 8.10 μM in bait)?
**A.** 0 % of control untreated flies

**Q.** What about the “Survival (% of control untreated flies)” value (Ceratitis capitata flies [2]; 3 μM in bait 24 h, time interval feeding-irradiation 0 h, irradiation 1 h at 1220 μE s^−1m^−2) of the same molecule?
**A.** 45 % of control untreated flies

**Q.** What about the “Survival (% of control untreated flies)” value (Ceratitis capitata flies [2]; 3 μM in bait 24 h, time interval feeding-irradiation 12 h, irradiation 1 h at 1220 μE s^−1m^−2) of the same molecule?
**A.** 52 % of control untreated flies

**Q.** What about the “Survival (% of control untreated flies)” value (Ceratitis capitata flies [2]; 3 μM in bait 24 h, time interval feeding-irradiation 24 h, irradiation 1 h at 1220 μE s^−1m^−2) of the same molecule?
**A.** 64 % of control untreated flies

**Q.** What about the “Survival (% of control untreated flies)” value (Ceratitis capitata flies [2]; 3 μM in bait 24 h, time interval feeding-irradiation 48 h, irradiation 1 h at 1220 μE s^−1m^−2) of the same molecule?
**A.** 70 % of control untreated flies

**Q.** And the “Survival (% of control untreated flies)” value (Ceratitis capitata flies [2]; 3 μM in bait, fluence-rate 760 μE s^−1m^−2, irradiated 24 h after feeding (title))?
**A.** 52 % of control untreated flies

**Q.** And the “Survival (% of control untreated flies)” value (Ceratitis capitata flies [2]; 3 μM in bait, fluence-rate 1220 μE s^−1m^−2, irradiated 24 h after feeding (title))?
**A.** 45 % of control untreated flies

**Q.** And the “Survival (% of control untreated flies)” value (Ceratitis capitata flies [2]; 3 μM in bait, fluence-rate 1500 μE s^−1m^−2, irradiated 24 h after feeding (title))?
**A.** 40 % of control untreated flies

**Q.** And the “Survival (% of control untreated flies)” value (Ceratitis capitata flies [2]; 3 μM in bait, fluence-rate 2000 μE s^−1m^−2, irradiated 24 h after feeding (title))?
**A.** 31 % of control untreated flies

**Q.** What about the “photoinsecticidal action compared among alkylated porphyrins” value (Ceratitis capitata flies [2]; irradiation with visible light or sunlight) of the same molecule?
**A.** drop in the overall photoactivity

**Q.** What about the “Survival (% of control untreated flies)” value (Ceratitis capitata flies [3]; sunlight (average 1150 μE s^−1m^−2) 15 min) of the same molecule?
**A.** 80 % of control untreated flies

**Q.** And the “Survival (% of control untreated flies)” value (Ceratitis capitata flies [3]; sunlight (average 1150 μE s^−1m^−2) 30 min)?
**A.** 75 % of control untreated flies

**Q.** What about the “Survival (% of control untreated flies)” value (Ceratitis capitata flies [3]; sunlight (average 1150 μE s^−1m^−2) 45 min) of the same molecule?
**A.** 61 % of control untreated flies

**Q.** What about the “Survival (% of control untreated flies)” value (Ceratitis capitata flies [3]; sunlight (average 1150 μE s^−1m^−2) 60 min) of the same molecule?
**A.** 31 % of control untreated flies

**Q.** And the “Survival (% of control untreated flies)” value (Ceratitis capitata flies [4]; 0.75 μM in bait)?
**A.** 100 % of control untreated flies

**Q.** What about the “Survival (% of control untreated flies)” value (Ceratitis capitata flies [4]; 1.25 μM in bait) of the same molecule?
**A.** 42 % of control untreated flies

**Q.** And the “Survival (% of control untreated flies)” value (Ceratitis capitata flies [4]; 2.10 μM in bait)?
**A.** 29 % of control untreated flies

**Q.** What about the “Survival (% of control untreated flies)” value (Ceratitis capitata flies [4]; 3.00 μM in bait) of the same molecule?
**A.** 12 % of control untreated flies

**Q.** What about the “Survival (% of control untreated flies)” value (Ceratitis capitata flies [4]; 5.00 μM in bait) of the same molecule?
**A.** 2 % of control untreated flies

**Q.** What about the “Survival (% of control untreated flies)” value (Ceratitis capitata flies [4]; 8.10 μM in bait) of the same molecule?
**A.** 0 % of control untreated flies

**Q.** What about the “Recoveries (nmoles of porphyrin per fly)” value ([5]; exposure time to bait 3 h, porphyrin in bait 1.24 μM) of the same molecule?
**A.** 3.1 nmoles of porphyrin per fly

**Q.** What about the “Recoveries (nmoles of porphyrin per fly)” value ([5]; exposure time to bait 12 h, porphyrin in bait 1.24 μM) of the same molecule?
**A.** 6.6 nmoles of porphyrin per fly

**Q.** And the “Recoveries (nmoles of porphyrin per fly)” value ([5]; exposure time to bait 24 h, porphyrin in bait 1.24 μM)?
**A.** 7.5 nmoles of porphyrin per fly

**Q.** And the “Recoveries (nmoles of porphyrin per fly)” value ([5]; porphyrin concentration in bait 0.75 (μmoles), feeding 24 h)?
**A.** 3.6 nmoles of porphyrin per fly

**Q.** And the “Recoveries (nmoles of porphyrin per fly)” value ([5]; porphyrin concentration in bait 1.25 (μmoles), feeding 24 h)?
**A.** 7.5 nmoles of porphyrin per fly

**Q.** What about the “Recoveries (nmoles of porphyrin per fly)” value ([5]; porphyrin concentration in bait 2.10 (μmoles), feeding 24 h) of the same molecule?
**A.** 8.3 nmoles of porphyrin per fly

**Q.** And the “Recoveries (nmoles of porphyrin per fly)” value ([5]; porphyrin concentration in bait 3.50 (μmoles), feeding 24 h)?
**A.** 14.3 nmoles of porphyrin per fly

**Q.** And the “Recoveries (nmoles of porphyrin per fly)” value ([5]; porphyrin concentration in bait 6.00 (μmoles), feeding 24 h)?
**A.** 16.2 nmoles of porphyrin per fly

**Q.** And the “Recoveries (nmoles of porphyrin per fly), release” value ([6]; 12 h after feeding interrupted)?
**A.** 3.7 nmoles of porphyrin per fly

**Q.** What about the “Recoveries (nmoles of porphyrin per fly), release” value ([6]; 24 h after feeding interrupted) of the same molecule?
**A.** 2.2 nmoles of porphyrin per fly

**Q.** And the “Recoveries (nmoles of porphyrin per fly), release” value ([6]; 48 h after feeding interrupted)?
**A.** 1.0 nmoles of porphyrin per fly

**Q.** And the “Recoveries (nmoles of porphyrin per fly), release” value ([7]; 12 h after feeding interrupted)?
**A.** 4.2 nmoles of porphyrin per fly

**Q.** And the “Recoveries (nmoles of porphyrin per fly), release” value ([7]; 24 h after feeding interrupted)?
**A.** 2.3 nmoles of porphyrin per fly

**Q.** What about the “Recoveries (nmoles of porphyrin per fly), release” value ([7]; 48 h after feeding interrupted) of the same molecule?
**A.** 1.1 nmoles of porphyrin per fly

**Q.** What about the “Recoveries (nmoles of porphyrin per fly), release” value ([8]; 12 h after feeding interrupted) of the same molecule?
**A.** 3.8 nmoles of porphyrin per fly

**Q.** What about the “Recoveries (nmoles of porphyrin per fly), release” value ([8]; 24 h after feeding interrupted) of the same molecule?
**A.** 1.7 nmoles of porphyrin per fly

**Q.** And the “Recoveries (nmoles of porphyrin per fly), release” value ([8]; 48 h after feeding interrupted)?
**A.** 0.6 nmoles of porphyrin per fly
